Source: the CheMixHub viscosity set
± gives the uncertainty stated by the source.

Experiment: xn = mol fraction of the nth substance listed
Conditions: 101 kPa

In the case of `COCCOCCOCCOCCOC` + O, the viscosity (298 K, x1 = 0.0075) is reported as 1.323 ± 0.035 mPa·s, the viscosity (298 K, x1 = 0.0142) is reported as 1.533 ± 0.04 mPa·s and the viscosity (298 K, x1 = 0.0297) is reported as 2.433 ± 0.062 mPa·s. The viscosity (298 K, x1 = 0.0419) was 3.198 ± 0.082 mPa·s, the viscosity (298 K, x1 = 0.0593) was 4.289 ± 0.11 mPa·s and the viscosity (298 K, x1 = 0.0784) was 5.24 ± 0.13 mPa·s. The viscosity (298 K, x1 = 0.1139) was 6.253 ± 0.16 mPa·s, the viscosity (298 K, x1 = 0.1398) was 6.469 ± 0.16 mPa·s and the viscosity (298 K, x1 = 0.1543) was 6.411 ± 0.16 mPa·s. The viscosity (303.15 K, x1 = 0.00562) was 1.177 ± 0.08 mPa·s, the viscosity (303.15 K, x1 = 0.02904) was 2.119 ± 0.081 mPa·s and the viscosity (303.15 K, x1 = 0.04576) was 3.14 ± 0.082 mPa·s. It also gave a viscosity (303.15 K, x1 = 0.07654) of 4.235 ± 0.084 mPa·s, a viscosity (303.15 K, x1 = 0.1006) of 4.915 ± 0.085 mPa·s and a viscosity (303.15 K, x1 = 0.1272) of 5.245 ± 0.086 mPa·s. For the same compound, the viscosity (303.15 K, x1 = 0.1512) was 5.331 ± 0.086 mPa·s, the viscosity (303.15 K, x1 = 0.2009) was 5.151 ± 0.086 mPa·s and the viscosity (303.15 K, x1 = 0.2493) was 4.865 ± 0.085 mPa·s. It also gave a viscosity (303.15 K, x1 = 0.2986) of 4.539 ± 0.085 mPa·s, a viscosity (303.15 K, x1 = 0.3508) of 4.269 ± 0.084 mPa·s and a viscosity (303.15 K, x1 = 0.4016) of 4.026 ± 0.084 mPa·s. The viscosity (303.15 K, x1 = 0.5033) was 3.66 ± 0.083 mPa·s, the viscosity (303.15 K, x1 = 0.5975) was 3.428 ± 0.083 mPa·s and the viscosity (303.15 K, x1 = 0.7029) was 3.236 ± 0.083 mPa·s. For the same compound, the viscosity (303.15 K, x1 = 0.8018) was 3.113 ± 0.083 mPa·s, the viscosity (303.15 K, x1 = 0.8532) was 3.066 ± 0.083 mPa·s and the viscosity (303.15 K, x1 = 0.9025) was 3.019 ± 0.083 mPa·s. For the same compound, the viscosity (303.15 K, x1 = 0.9447) was 2.982 ± 0.083 mPa·s, the viscosity (308.15 K, x1 = 0.00562) was 1.049 ± 0.08 mPa·s and the viscosity (308.15 K, x1 = 0.02904) was 1.844 ± 0.081 mPa·s. For the same compound, the viscosity (308.15 K, x1 = 0.04576) was 2.677 ± 0.082 mPa·s, the viscosity (308.15 K, x1 = 0.07654) was 3.566 ± 0.083 mPa·s and the viscosity (308.15 K, x1 = 0.1006) was 4.126 ± 0.084 mPa·s. For the same compound, the viscosity (308.15 K, x1 = 0.1272) was 4.392 ± 0.084 mPa·s, the viscosity (308.15 K, x1 = 0.1512) was 4.475 ± 0.085 mPa·s and the viscosity (308.15 K, x1 = 0.2009) was 4.371 ± 0.084 mPa·s. It also gave a viscosity (308.15 K, x1 = 0.2493) of 4.154 ± 0.084 mPa·s, a viscosity (308.15 K, x1 = 0.2986) of 3.909 ± 0.083 mPa·s and a viscosity (308.15 K, x1 = 0.3508) of 3.695 ± 0.083 mPa·s. It also gave a viscosity (308.15 K, x1 = 0.4016) of 3.508 ± 0.083 mPa·s, a viscosity (308.15 K, x1 = 0.5033) of 3.22 ± 0.083 mPa·s and a viscosity (308.15 K, x1 = 0.5975) of 3.025 ± 0.082 mPa·s. For the same compound, the viscosity (308.15 K, x1 = 0.7029) was 2.883 ± 0.082 mPa·s, the viscosity (308.15 K, x1 = 0.8018) was 2.78 ± 0.082 mPa·s and the viscosity (308.15 K, x1 = 0.8532) was 2.744 ± 0.082 mPa·s. It also gave a viscosity (308.15 K, x1 = 0.9025) of 2.704 ± 0.082 mPa·s, a viscosity (308.15 K, x1 = 0.9447) of 2.679 ± 0.082 mPa·s and a viscosity (313.15 K, x1 = 0.00562) of 0.937 ± 0.08 mPa·s. The viscosity (313.15 K, x1 = 0.02904) was 1.618 ± 0.081 mPa·s, the viscosity (313.15 K, x1 = 0.04576) was 2.309 ± 0.081 mPa·s and the viscosity (313.15 K, x1 = 0.07654) was 3.043 ± 0.082 mPa·s. For the same compound, the viscosity (313.15 K, x1 = 0.1006) was 3.487 ± 0.083 mPa·s, the viscosity (313.15 K, x1 = 0.1272) was 3.729 ± 0.083 mPa·s and the viscosity (313.15 K, x1 = 0.1512) was 3.802 ± 0.083 mPa·s. It also gave a viscosity (313.15 K, x1 = 0.2009) of 3.744 ± 0.083 mPa·s, a viscosity (313.15 K, x1 = 0.2493) of 3.6 ± 0.083 mPa·s and a viscosity (313.15 K, x1 = 0.2986) of 3.397 ± 0.083 mPa·s. The viscosity (313.15 K, x1 = 0.3508) was 3.228 ± 0.082 mPa·s, the viscosity (313.15 K, x1 = 0.4016) was 3.089 ± 0.082 mPa·s and the viscosity (313.15 K, x1 = 0.5033) was 2.853 ± 0.082 mPa·s. It also gave a viscosity (313.15 K, x1 = 0.5975) of 2.698 ± 0.082 mPa·s, a viscosity (313.15 K, x1 = 0.7029) of 2.577 ± 0.082 mPa·s and a viscosity (313.15 K, x1 = 0.8018) of 2.497 ± 0.082 mPa·s. The viscosity (313.15 K, x1 = 0.8532) was 2.467 ± 0.082 mPa·s, the viscosity (313.15 K, x1 = 0.9447) was 2.414 ± 0.082 mPa·s and the viscosity (318.15 K, x1 = 0.00562) was 0.839 ± 0.08 mPa·s. For the same compound, the viscosity (318.15 K, x1 = 0.02904) was 1.431 ± 0.08 mPa·s, the viscosity (318.15 K, x1 = 0.04576) was 1.992 ± 0.081 mPa·s and the viscosity (318.15 K, x1 = 0.07654) was 2.621 ± 0.082 mPa·s. For the same compound, the viscosity (318.15 K, x1 = 0.1006) was 2.994 ± 0.082 mPa·s, the viscosity (318.15 K, x1 = 0.1272) was 3.181 ± 0.082 mPa·s and the viscosity (318.15 K, x1 = 0.1512) was 3.273 ± 0.082 mPa·s. It also gave a viscosity (318.15 K, x1 = 0.2009) of 3.243 ± 0.082 mPa·s, a viscosity (318.15 K, x1 = 0.2493) of 3.128 ± 0.082 mPa·s and a viscosity (318.15 K, x1 = 0.2986) of 2.982 ± 0.082 mPa·s. For the same compound, the viscosity (318.15 K, x1 = 0.3508) was 2.845 ± 0.082 mPa·s, the viscosity (318.15 K, x1 = 0.4016) was 2.735 ± 0.082 mPa·s and the viscosity (318.15 K, x1 = 0.5033) was 2.543 ± 0.082 mPa·s. The viscosity (318.15 K, x1 = 0.5975) was 2.42 ± 0.082 mPa·s, the viscosity (318.15 K, x1 = 0.7029) was 2.323 ± 0.081 mPa·s and the viscosity (318.15 K, x1 = 0.8018) was 2.257 ± 0.082 mPa·s. The viscosity (318.15 K, x1 = 0.8532) was 2.231 ± 0.082 mPa·s, the viscosity (318.15 K, x1 = 0.9025) was 2.203 ± 0.082 mPa·s and the viscosity (318.15 K, x1 = 0.9447) was 2.182 ± 0.082 mPa·s. It also gave a viscosity (323.15 K, x1 = 0.00562) of 0.767 ± 0.08 mPa·s, a viscosity (323.15 K, x1 = 0.02904) of 1.275 ± 0.08 mPa·s and a viscosity (323.15 K, x1 = 0.04576) of 1.766 ± 0.081 mPa·s. The viscosity (323.15 K, x1 = 0.07654) was 2.273 ± 0.081 mPa·s, the viscosity (323.15 K, x1 = 0.1006) was 2.593 ± 0.082 mPa·s and the viscosity (323.15 K, x1 = 0.1272) was 2.758 ± 0.082 mPa·s. The viscosity (323.15 K, x1 = 0.1512) was 2.838 ± 0.082 mPa·s, the viscosity (323.15 K, x1 = 0.2009) was 2.839 ± 0.082 mPa·s and the viscosity (323.15 K, x1 = 0.2493) was 2.76 ± 0.082 mPa·s. For the same compound, the viscosity (323.15 K, x1 = 0.3508) was 2.528 ± 0.081 mPa·s, the viscosity (323.15 K, x1 = 0.4016) was 2.433 ± 0.081 mPa·s and the viscosity (323.15 K, x1 = 0.5033) was 2.281 ± 0.081 mPa·s. The viscosity (323.15 K, x1 = 0.5975) was 2.183 ± 0.081 mPa·s, the viscosity (323.15 K, x1 = 0.8018) was 2.047 ± 0.081 mPa·s and the viscosity (323.15 K, x1 = 0.8532) was 2.029 ± 0.081 mPa·s. It also gave a viscosity (323.15 K, x1 = 0.9447) of 1.99 ± 0.081 mPa·s.
